This is an account of results in patent publication EP0062319A1, “3-Methyl-1-(2-(3-naphthyloxy)-ethyl)-2-pyrazolin-5-one for the treatment of the metastasis and growth of tumour cells” (BAYER AG, priority 1981, dated 1982).

One assay relates to B-16a-Zellen. Put plainly: DNA synthesis by 3H-thymidine uptake in B-16a cells in vitro. The assay is classed as cell-based, Mäuse. The note with it: 0,1, 1,0, 10 and 25 µg/ml, 4 h and 18 h, Fig. 1, relative to control = 100 %. The text has this:
Die antineoplastische Wirksamkeit wurde in vitro durch Messung der DNS-Synthese sowohl von B-16a- als auch von Lewis-Lungenkarzinom-Zellen durch eine Methode gemessen, der die Thymidin-Aufnahme zugrundeliegt. Zellen, die in Vorbereitung der Zellteilung DNS synthetisieren, sind durch ihre Fähigkeit gekennzeichnet, Thymidin aufzunehmen. Demnach ist die Zell-Proliferation mit der DNS-Synthese verbunden. Wenn die Menge der durch die Tumorzellen synthetisierten DNS vermindert wird, so ist das ein Anzeichen dafür, daß die Zellteilung und damit das Tumorwachstum gehemmt worden ist.
B-16a- und Lewis-Lungenkarzinom-Zellen wurden wie vor- stehend beschrieben erhalten. Die dispergierten Zellen wurden in sterilen 25 ml-Erlenmeyer-Kolben aus Kunststoff auf eine Konzentration von 1 x 10^5 Zellen/ml in MEM verdünnt. Tritium-markiertes Thymidin (^3H) mit einer spezifischen Aktivität von […] (50-80 Ci/mmol) wurde mit […] (2 µCi/ml) zu jedem ml der Zellsuspension hinzugefügt.
Zu einer Reihe von Kolben, die die B-16 - und Lewis-Lungenkarzinom-Zellen enthielten, wurde die Pyrazolon-Verbindung in Mengen von 0,1 , 1,0 , 10 und 25 µg/ml des Gesamtvolumens hinzugefügt. […]

The subject of assay [1] is B-16a-amelanotischen Melanom-Zellen. The assay is described as follows: Metastasis of tail-vein injected B-16a melanoma cells (lung tumour colonies) in mice. It counts as in vivo, C57BL/6J Mäuse. As to conditions: 5 x 10^4 cells i.v., mean ± SEM, n = 6. The text has this:
Wie bereits weiter oben festgestellt wurde, ist die Metastase […], die durch eine Reihe komplizierter Vorgänge dargestellt wird. Gegenwärtig finden zwei "Modell"-Systeme für die Untersuchung der in vivo-Metastase verbreitete Anwendung. Das erste Modellsystem umfaßt die subkutane Injektion der Tumorzellen in das Tier. Die subkutane Injektion der Tumorzellen und anschließende Entwicklung eines Primärtumors, gefolgt von spontaner Metastase, wird als "volle" Metastase betrachtet. Ein anderes Modellsystem umfaßt die Injektion der Tumorzellen durch die Schwanzvene. In Anbetracht der Komplexität der Metastase gilt die Schwanzvenen-Injektion als künstliches und nur partielles Modellsystem, da es nur die Vorgänge während des letzteren Teils der Metastase wiedergibt. Das Schwanzvenen-Modellsystem gilt jedoch auch als außerordentlich günstig im Hinblick auf eine Standardisierung der Versuchsbedingungen [vgl."Methods in Cancer Research", Kapitel VII, Academic Press, Inc., 1978].
Als Kontrolltiere wurden (unbehandelte) C57B1/6J-Mäuse nach folgender Arbeitsweise auf volle Metastase untersucht. Zellsuspensionen der B-16 - und 3LL-Karzinom-Zellen, die wie oben unter A und B beschrieben erhalten worden waren, wurden subkutan in die rechte Achselhöhlenregion der männlichen C57BL/6J-Mäuse injiziert (0,66 mm- = 26 gauge -Nadel; 0,2 ml). Injiziert wurden verschiedene Mengen der Zellsuspensionen im Bereich von 1 x 10^5 bis 1 x 10^6 Zellen. Versuche zur partiellen Metastase wurden in der Weise durchgeführt, daß Tumorzellen über die Schwanzvene in die (unbehandelten) Kontroll-Mäuse injiziert wurden. Die Tiere wurden unter identischen Bedingungen der Temperatur, Lichteinwirkungsdauer, Ernährung etc. gehalten. Nach einem Beobachtungszeitraum von 17 bis 30 Tagen wurden die für die volle Metastase und für die partielle Metastase verwendeten Tiere getötet, und die Lungen, Leber, Nieren, Milz und Gehirn-Gewebe wurde entnommen.
Das entnommene Gewebe wurde in Bouin-Lösung fixiert.
Die Zahl der metastatischen Knötchen in jedem Organ wurde mit Hilfe eines Bausch-und-Lomb Stereo-Zoom-Mikroskops bestimmt. Die Untersuchung der Kontroll- Mäuse auf metastatische Knötchen ergab bei 100 % der Tiere positive Befunde in bezug auf metastatische Lungentumoren; die Inkubationszeit für die Erzeugung solcher Metastasen betrug für die 3LL-Tumorzellen 17 bis 21 Tage und für die B-16 a -Tumorzellen 23 bis 30 Tage. In Leber, Nieren, Milz oder Gehirn-Gewebe wurden keine sichtbaren Knötchen beobachtet.
3 mg 3-Methyl-1-[2-(2-naphthyloxy)-ethyl]-2-pyrazolin-5-on wurden in 0,6 ml absolutem Ethylalkohol suspendiert. Das suspendierte Pyrazolon wurde durch Einstellen des pH auf 9,5 mit NaOH gelöst. […]

`CC1=NN(CCOc2ccc3ccccc3c2)C(=O)C1` [3-Methyl-1-[2-(2-naphthyloxy)-ethyl]-2-pyrazolin-5-on]: in the assay with B-16a-Zellen, the “DNS-Synthese (3H-Thymidinaufnahme)” value was “konzentrationsabhängige Abnahme der DNS-Synthese”. The Lungen-Tumor-Kolonien in assay [1] (0.02 mg/mouse s.c. daily for 3 days before tumour cell injection, lungs 14 days later) is reported as 19.3 ± 7.5; in assay [1] (0.08 mg, second line of the table (presumably injected 1 h before the tumour cells)), 65 ± 36; in assay [1] (0.08 mg/mouse s.c. daily for 3 days before tumour cell injection, lungs 14 days later), 2.7 ± 1.3.
